Columns and labels:
Assay type in all cases: binding
[1] = target: T1, SeClpP (ClpP from Staphylococcus epidermidis) (Staphylococcus epidermidis, UniProt Q8CTE0); assay: X-ray crystal structure, soaked crystals, […] Å; settings: catalytic site; covalent (boron to Ser98, reversible); crystals soaked with 10 mM ixazomib
T1 construct: codon-optimised ORF in pET28a(+), C-terminal His-tag, expressed in E. coli BL21(DE3) Star; homotetradecamer (about 300 kDa) of two stacked heptameric rings, heptamers also present without glycerol; catalytic triad Ser98, His123, Asp172
T1 sequence (Q8CTE0 1-194): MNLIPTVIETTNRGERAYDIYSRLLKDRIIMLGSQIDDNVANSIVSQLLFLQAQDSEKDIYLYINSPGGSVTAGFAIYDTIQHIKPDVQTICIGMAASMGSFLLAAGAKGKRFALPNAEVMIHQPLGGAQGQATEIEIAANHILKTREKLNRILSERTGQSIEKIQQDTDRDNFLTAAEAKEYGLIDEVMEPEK

[2] = target: T1, SeClpP (ClpP from Staphylococcus epidermidis); assay: nanoDSF thermal shift; settings: 10 µM SeClpP, pH 7.5, 100 mM KCl, 2 mM DTT, no glycerol; covalent (reversible boronate)
[3] = target: T1, SeClpP (ClpP from Staphylococcus epidermidis); assay: isothermal titration calorimetry; settings: read-out: K (converted)

SMILES: CC(C)C[C@H](NC(=O)CNC(=O)c1cc(Cl)ccc1Cl)B(O)O [ixazomib]
- X-ray crystal structure, soaked crystals, 2.33 Å [1]: the boron atom of ixazomib is covalently bound to Ser98
- melting temperature [2]: SeClpP bound to the peptidomimetic boronate, and therefore more thermostable
- Kd [3]: 5.38 µM
